The results in this text go back to patent publication US8163509B2, “Biological markers predictive of anti-cancer response to insulin-like growth factor-1 receptor kinase inhibitors” (The Regents of the University of Colorado, A Body Corporate, priority 2008, dated 2012).

Each structure is given as a SMILES string. Where two headings read alike, the source gives them in different places.

Holding throughout (assay): SRB proliferation assay, 72 h
(The SRB assay estimates cell density from bound dye.)

The subject of assay [1] is CaCo2 CRC cell line. The class given is cell-based. As to conditions: Homo sapiens. On the procedure: (§1) FIG. 17: Results of cell proliferation assay on the panel of 27 CRC cell lines. Cell proliferation was evaluated by SRB following exposure to OSI-906 for 72 hours. Cells were plated at an optimized density in 96-well plates, incubated overnight at 37° C., and then exposed to a serial dilution of OSI-906. After 72 hours incubation, cells were fixed with trichloroacetic acid and an SRB was performed as described in materials and methods.
(§2) Cell Lines and Culture. […] human colon cancer cell lines, were obtained from American Type Culture Collection (Manassas, Va.). Cells were grown in RPMI medium supplemented with 10% fetal bovine serum, 1% non-essential amino acids, 1% penicillin/streptomycin and were maintained at 37° C. in an incubator under an atmosphere containing 5% CO2. The cells were routinely screened for the presence of mycoplasma (MycoAlert, Cambrex Bio Science, Baltimore, Md.) and were exposed to PQIP when they reached approximately 70% confluence.
(§3) The CRC cell lines were treated with a range of concentrations of PQIP (from 0.05-5 μM) for 72 hours.
(§4) Cell Lines and Culture: Twenty-seven human colon cancer cell lines, were obtained from American Type Culture Collection (Manassas, Va.). The GEO cells were a generous gift from Dr. Fortunato Ciardiello (Cattedra di Oncologia Medica, Dipartimento Medico-Chirurgico di Internistica Clinica e Sperimentale “F Magrassi e A Lanzara,” Seconda Università degli Studi di Napoli, Naples). All cells except GEO were grown in RPMI medium supplemented with 10% fetal bovine serum, 1% non-essential amino acids, 1% penicillin/streptomycin and were maintained at 37° C. in an incubator under an atmosphere containing 5% CO2. GEO cells were grown in DMEM/F12 supplemented with 10% fetal bovine serum, 1% non-essential amino acids, 1% penicillin/streptomycin. The cells were routinely screened for the presence of mycoplasma (MycoAlert, Cambrex Bio Science, Baltimore, Md.) and were exposed to OSI-906 when they reached approximately 70% confluence. OSI-906 was provided by OSI Pharmaceuticals, (Boulder, Colo.) and prepared as a 10 mM stock solution in DMSO.
(§5) Assessment of responsiveness of a panel of CRC cell lines to OSI-906. In order to assess CRC cell lines with differential sensitivity to OSI-906, a panel of 27 CRC cell lines were exposed to increasing concentrations of OSI-906 and proliferation was measured using the SRB assay as described previously (Pitts, T M, et al. Mol Cancer Ther 2009; 8(2):342-9). As depicted in FIG. 17 there was a wide range of sensitivity of the CRC cell lines to OSI-906, the majority of the cell lines failing to reach an IC50 up to 5 μmol/L, but a clear distinction could be made between the cell lines that were sensitive and the cell lines that were resistant.

For assay [2], the system named is HCT15 CRC cell line. The class given is cell-based. As to conditions: Homo sapiens. On the procedure: as §1, §2, §3, §4, §5
Assay [3] relates to LS123 CRC cell line. The class given is cell-based. As to conditions: Homo sapiens. How it is done: as §1, §2, §3, §4, §5
Assay [4] has as its system LoVo CRC cell line. The class given is cell-based. As to conditions: Homo sapiens. How it is done: as §1, §2, §3, §4, §5
The test system of assay [5] is NCI-H508 CRC cell line. The class given is cell-based. The note with it: Homo sapiens. On the procedure:
as §1, §2, §3, §4, §5

Assay [6] concerns SW1417 CRC cell line. The class given is cell-based. The note with it: Homo sapiens. How it is done:
as §1, §2, §3, §4, §5

The subject of assay [7] is SW1463 CRC cell line. The class given is cell-based. The note with it: Homo sapiens. On the procedure:
as §1, §2, §3, §4, §5

Assay [8] deals with SW48 CRC cell line. The class given is cell-based. As to conditions: Homo sapiens. On the procedure: as §1, §2, §3, §4, §5
In assay [9] the test system is SW948 CRC cell line. The class given is cell-based. The note with it: Homo sapiens. How it is done: as §1, §2, §3, §4, §5
Assay [10] has as its system T84 CRC cell line. The class given is cell-based. The note with it: Homo sapiens. On the procedure: as §1, §2, §3, §4, §5
Assay [11] concerns Colo201 CRC cell line. The class given is cell-based, human. The note with it: for IC50: Homo sapiens, COLO 201. How it is done:
as §1, §2, §3, §4, §5

Assay [12] relates to SK-CO-1 CRC cell line. The class given is cell-based, human. The note with it: for IC50: Homo sapiens. How it is done:
as §1, §2, §3, §4, §5

Assay [13] deals with SW620 CRC cell line. The class given is cell-based, human. The note with it: for IC50: Homo sapiens. How it is done:
as §1, §2, §3, §4, §5

Setting [14] is: 72 hours, 0.05-5 μM, read-out: IC50, growth inhibition by PQIP (SRB).
The mark [15] stands for this setting: 72 hours, read-out: IC50, proliferation, OSI-906 (SRB).

Turning to `CN1CCN([C@H]2C[C@@H](c3nc(-c4ccc5ccc(-c6ccccc6)nc5c4)c4c(N)nccn43)C2)CC1` [PQIP, cis-3-[3-(4-Methyl-piperazin-1-yl)-cyclobutyl]1-(2-phenyl-quinolin-7-yl)-imidazo[1,5-a]pyrazin-8-ylamine], the IC50 in assay [1] (Caco-2, 72 hours, 0.05-5 μM, read-out: IC50, growth inhibition by PQIP (SRB)) was more than 5 µM; in [2] (HCT-15, 72 hours, 0.05-5 μM, read-out: IC50, growth inhibition by PQIP (SRB)), more than 5 µM; in assay [3] (LS-123, 72 hours, 0.05-5 μM, read-out: IC50, growth inhibition by PQIP (SRB)), more than 5 µM; in assay [4] (setting [14]) it was more than 5 µM; in [5] (setting [14]), more than 5 µM; in assay [6] (setting [14]), more than 5 µM. Besides, the IC50 in assay [7] (setting [14]), in assay [8] (setting [14]), in assay [9] (setting [14]) and in assay [10] (setting [14]) was more than 5 µM each time. The “sensitivity to growth inhibition by PQIP (SRB)” value in assay [11] (Colo201, 72 hours, 0.05-5 μM) is listed as “intermediate sensitivity”; in [12] (72 hours, 0.05-5 μM), “intermediate sensitivity”; in [13] (72 hours, 0.05-5 μM) it was “intermediate sensitivity”.
With `C[C@]1(O)C[C@@H](c2nc(-c3ccc4ccc(-c5ccccc5)nc4c3)c3c(N)nccn32)C1` [OSI-906, cis-3-[8-amino-1-(2-phenyl-quinolin-7-yl)-imidazo[1,5-a]pyrazin-3-yl]-1-methyl-cyclobutanol], the IC50 in assay [1] (Caco-2, 72 hours, read-out: IC50, proliferation, OSI-906 (SRB)) is not above 1.5 µM; in [1] (Caco-2, read-out: S/I/R to OSI-906), not above 1.5 µM; in [2] (HCT-15, 72 hours, read-out: IC50, proliferation, OSI-906 (SRB)) it was more than 5 µM; in assay [2] (HCT-15, read-out: S/I/R to OSI-906) it was more than 5 µM; in assay [3] (LS-123, 72 hours, read-out: IC50, proliferation, OSI-906 (SRB)), more than 5 µM; in assay [3] (LS-123, read-out: S/I/R to OSI-906), more than 5 µM. For the same molecule, the IC50 in assay [4] (setting [15]), in [4] (read-out: S/I/R to OSI-906), in [5] (setting [15]), in [5] (read-out: S/I/R to OSI-906), in assay [6] (setting [15]) and in assay [6] (read-out: S/I/R to OSI-906) was more than 5 µM in each case. Moreover, the IC50 in assay [7] (setting [15]), in assay [7] (read-out: S/I/R to OSI-906), in [8] (setting [15]), in [8] (read-out: S/I/R to OSI-906), in assay [9] (setting [15]) and in [9] (read-out: S/I/R to OSI-906) was more than 5 µM each time. Moreover, the IC50 in assay [10] (setting [15]) was more than 5 µM; in assay [10] (T-84, read-out: S/I/R to OSI-906) it was more than 5 µM; in [11] (CoLo201, read-out: S/I/R to OSI-906), more than 5 µM; in [11] (Colo201, 72 hours, read-out: IC50, proliferation, OSI-906 (SRB)), more than 5 µM; in assay [12] (setting [15]), more than 5 µM; in assay [12] (read-out: S/I/R to OSI-906), more than 5 µM. The IC50 is more than 5 µM in assay [13] (SW-620, 72 hours, read-out: IC50, proliferation, OSI-906 (SRB)) and more than 5 µM in assay [13] (SW-620, read-out: S/I/R to OSI-906).
